Data from patent publication US11286228B2, “Stilbene derivative and method for preparing same” (Ozchela Inc., priority 2016, dated 2022).
Read-outs that look alike come from different tables or passages of the source.

How the values were obtained:
[1] = test system: mitochondria obtained from hepatocytes; assay: Inhibitory activity on calcium-induced mitochondrial swelling (absorbance 520 nm); conditions: read-out: Test Example 4: inhibiting mitochondrial swelling (IC50)
Source text: Cyclophilin is a key protein for forming permeability transition pores (PTP) in mitochondria. When permeability transition pores are formed, mitochondria swell, whereby the outer membrane thereof ruptures and thus cell death progresses. Such mitochondrial dysfunction causes many diseases including neurodegenerative diseases, cancer, and the like. Cyclosporine, a known cyclophilin inhibitor, is capable of preventing the formation of permeability transition pores to thus suppress mitochondrial swelling.
The mitochondrial swelling test was performed as follows. Specifically, the hepatocytes were disrupted using a Dounce tissue grinder. The disrupted cells were centrifuged at 700×g for 10 min and the supernatant was transferred into a new tube. The supernatant was centrifuged at 12,000×g for 15 min, thereby obtaining mitochondria.
When the extracted mitochondria were added with calcium, they swelled, which may be observed by measuring the absorbance at 520 nm. The stilbene derivatives are effective at inhibiting mitochondrial swelling due to calcium.
The activity of Compounds 1 to 155 of Tables 1 to 10 on inhibiting mitochondrial swelling may be determined based on IC50 values, and may be grouped as follows: […]

hepatitis C virus = assay: Antiviral activity in HCV replicon cells (Renilla luciferase); assay type: cell-based; conditions: read-out: Test Example 3: antiviral activity (EC50)
Procedure: The antiviral activity of the stilbene derivatives on hepatitis C virus was measured. The replicon cells that stably replicate the hepatitis C virus genome were attached to a culture plate and cultured in a CO2 incubator at 37° C. for 24 hr. The replicon cells cultured for one day were washed with a PBS solution, treated with the compounds of the present invention, and then cultured for 72 hr. The stilbene derivative-treated replicon cells were washed with a cold PBS solution and added with 20 μL of a cell lysis solution so that the cells were lysed in ice for 20 min. 100 μL of a Renilla luciferase substrate was added thereto, after which the luminescence thereof was measured and thus the amount of the hepatitis C virus genome was estimated. The amount of the hepatitis C virus genome in the stilbene derivative-treated replicon cells according to the present invention relative to the amount of the hepatitis C virus genome in dimethylsulfoxide (DMSO)-treated replicon cells is shown.
Compounds 1 to 155 of Tables 1 to 10 may be grouped as follows based on the antiviral activity (EC50) values: […]

cyclophilin = assay: Cis-trans isomerase inhibitory activity (chymotrypsin-coupled Suc-AAPF-pNA cleavage, absorbance 390 nm); assay type: biochemical; conditions: cyclophilin, chymotrypsin, Suc-AAPF-pNA; read-out: Test Example 1: cis-trans isomerase inhibitory activity (IC50)
Source text: Chymotrypsin cleaves a trans-type alanine-proline peptide bond. When Suc-AAPF-pNA (a peptide substrate) and chymotrypsin are mixed, the trans-type peptide substrate is cleaved and the cis-type peptide substrate remains. The remaining cis-type peptide substrate is converted into a trans form by a cis-trans isomerase and is then cleaved again by chymotrypsin. When the cis-trans isomerase is present, chymotrypsin is able to cleave a larger amount of trans-type peptide substrate within a predetermined period of time, from which the activity of the cis-trans isomerase may be determined. The amount of the cleaved trans-type peptide substrate is measured using absorbance at 390 nm. Cyclophilin has cis-trans isomerase activity, and accelerates the cleavage of trans-type peptide substrate by chymotrypsin. When the stilbene derivatives of the present invention were treated together with cyclophilin, the cleavage of the peptide substrate by chymotrypsin was not observed to accelerate. Thereby, the stilbene derivatives of the invention can be concluded to inhibit the activity of cyclophilin.

[2] = Hepatocyte, calcium-induced swelling of extracted mitochondria
[3] = Hepatitis C virus, HCV replicon cells, 72 hr, Renilla luciferase, relative to DMSO
[4] = calcium-induced swelling of extracted mitochondria
[5] = HCV replicon cells, 72 hr, Renilla luciferase, relative to DMSO

SMILES | IC50 [1, 2] [µM] | EC50 (hepatitis C virus; [3]) [µM] | IC50 (cyclophilin) [µM] | IC50 [1, 4] [µM] | EC50 (hepatitis C virus; [5]) [µM] | IC50 ([1]; Hepatocyte) [µM] | EC50 (hepatitis C virus; Hepatitis C virus, 72 h) [µM]
Cc1ccc(C(C#N)=Cc2ccccc2N(C)C)cc1 [Compound 1] | 50 to 500 | 5 to 50 | 0.2 to 2 |  |  |  | 
CCc1ccc(C(C#N)=Cc2ccccc2C(=O)O)cc1 [Compound 2] |  |  | 0.2 to 2 | 50 to 500 | 5 to 50 |  | 
CCc1ccc(C(C#N)=Cc2ccccc2N(C)C)cc1 [Compound 3] |  |  | 0.2 to 2 | 50 to 500 | 5 to 50 |  | 
CC(C)c1ccc(C(C#N)=Cc2ccccc2Cl)cc1 [Compound 4] | 50 to 500 | 5 to 50 | 0.2 to 2 |  |  |  | 
CC(C)c1ccc(C(C#N)=Cc2ccccc2C(=O)O)cc1 [Compound 5] | 50 to 500 | 5 to 50 | 0.2 to 2 |  |  |  | 
COc1ccccc1C=C(C#N)c1ccc(C(C)C)cc1 [Compound 6] | 50 to 500 | 5 to 50 | 0.2 to 2 |  |  |  | 
CN(C)c1ccccc1C=C(C#N)c1ccc([N+](=O)[O-])cc1 [Compound 7] | 50 to 500 | 5 to 50 | 0.2 to 2 |  |  |  | 
CCCCc1ccc(C(C#N)=Cc2ccccc2C(=O)O)cc1 [Compound 8] |  |  | 0.02 to 0.2 | 5 to 50 | 0.5 to 5 |  | 
CCC(C)c1ccc(C(C#N)=Cc2ccccc2C(=O)O)cc1 (stereo not drawn) [Compound 9] |  |  | 0.02 to 0.2 | 5 to 50 | 0.5 to 5 |  | 
CC(C)(C)c1ccc(C(C#N)=Cc2ccccc2C(=O)O)cc1 [Compound 10] | 5 to 50 | 0.5 to 5 | 0.02 to 0.2 |  |  |  | 
COc1ccccc1C=C(C#N)c1ccc(C(C)(C)C)cc1 [Compound 11] | 50 to 500 | 5 to 50 | 0.2 to 2 |  |  |  | 
COc1ccccc1C=C(C#N)c1ccc(C)c(C)c1 [Compound 12] | 50 to 500 | 5 to 50 | 0.2 to 2 |  |  |  | 
Cc1ccc(C(C#N)=Cc2ccccc2C(=O)O)cc1C [Compound 13] |  |  | 0.2 to 2 | 50 to 500 | 5 to 50 |  | 
COc1ccccc1C=C(C#N)c1ccc(C(=O)C(C)(C)C)cc1 [Compound 14] | 5 to 50 | 0.5 to 5 | 0.02 to 0.2 |  |  |  | 
CC(C)(C)C(=O)c1ccc(C(C#N)=Cc2ccccc2C(=O)O)cc1 [Compound 15] |  |  | 0.2 to 2 | 50 to 500 | 5 to 50 |  | 
CCOc1ccc(C(C#N)=Cc2ccccc2OC)cc1 [Compound 16] | 50 to 500 | 5 to 50 | 0.2 to 2 |  |  |  | 
CCOc1ccc(C(C#N)=Cc2ccccc2C(=O)O)cc1 [Compound 17] |  |  | 0.2 to 2 | 50 to 500 | 5 to 50 |  | 
CCCCOc1ccc(C(C#N)=Cc2ccccc2OC)cc1 [Compound 18] | 5 to 50 | 0.5 to 5 | 0.02 to 0.2 |  |  |  | 
CCCCOc1ccc(C(C#N)=Cc2ccccc2C(=O)O)cc1 [Compound 19] |  |  | 0.02 to 0.2 | 5 to 50 | 0.5 to 5 |  | 
COc1ccccc1C=C(C#N)c1ccc(Cc2ccccc2)cc1 [Compound 20] | < 5 | < 0.5 | ≤ 0.02 |  |  |  | 
N#CC(=Cc1ccccc1C(=O)O)c1ccc(Cc2ccccc2)cc1 [Compound 21] |  |  | ≤ 0.02 | < 5 | < 0.5 |  | 
CCc1ccccc1C=C(C#N)c1ccc([N+](=O)[O-])cc1 [Compound 22] | 50 to 500 | 5 to 50 | 0.2 to 2 |  |  |  | 
CC(C)c1ccccc1C=C(C#N)c1ccc([N+](=O)[O-])cc1 [Compound 23] | 50 to 500 | 5 to 50 | 0.2 to 2 |  |  |  | 

SMILES | IC50 [1, 2] [µM] | EC50 (hepatitis C virus; [3]) [µM] | IC50 (cyclophilin) [µM] | IC50 [1, 4] [µM] | EC50 (hepatitis C virus; [5]) [µM] | IC50 ([1]; Hepatocyte) [µM] | EC50 (hepatitis C virus; Hepatitis C virus, 72 h) [µM]
N#CC(=Cc1ccccc1N)c1ccc([N+](=O)[O-])cc1 [Compound 24] | 50 to 500 | 5 to 50 | 0.2 to 2 |  |  |  | 
CN1CCN(c2ccccc2C=C(C#N)c2ccc([N+](=O)[O-])cc2)CC1 [Compound 25] | 50 to 500 | 5 to 50 | 0.2 to 2 |  |  |  | 
CCC(C)Oc1ccccc1C=C(C#N)c1ccc([N+](=O)[O-])cc1 (stereo not drawn) [Compound 26] | 50 to 500 | 5 to 50 | 0.2 to 2 |  |  |  | 
N#CC(=Cc1ccccc1OCC1CC1)c1ccc([N+](=O)[O-])cc1 [Compound 27] |  |  | 0.02 to 0.2 | 5 to 50 | 0.5 to 5 |  | 
CN(C)CCOc1ccccc1C=C(C#N)c1ccc([N+](=O)[O-])cc1 [Compound 28] | 50 to 500 | 5 to 50 | 0.2 to 2 |  |  |  | 
N#CC(=Cc1ccccc1N1CCCCC1)c1ccc([N+](=O)[O-])cc1 [Compound 29] | 50 to 500 | 5 to 50 | 0.2 to 2 |  |  |  | 
N#CC(=Cc1ccccc1N1CCOCC1)c1ccc([N+](=O)[O-])cc1 [Compound 30] | 50 to 500 | 5 to 50 | 0.2 to 2 |  |  |  | 
N#CC(=Cc1ccccc1C1CCCCC1)c1ccc([N+](=O)[O-])cc1 [Compound 31] |  |  | 0.02 to 0.2 |  |  | 5 to 50 | 0.5 to 5
CC(C)CCOc1cccc(C=C(C#N)c2ccc([N+](=O)[O-])cc2)c1 [Compound 32] | 50 to 500 | 5 to 50 | 0.2 to 2 |  |  |  | 
CN(C)CCCOc1cccc(C=C(C#N)c2ccc([N+](=O)[O-])cc2)c1 [Compound 33] | 50 to 500 | 5 to 50 | 0.2 to 2 |  |  |  | 
CC(C)Cc1ccccc1C=C(C#N)c1ccc([N+](=O)[O-])cc1 [Compound 34] | 50 to 500 | 5 to 50 | 0.2 to 2 |  |  |  | 
CC(C)(C)Cc1ccccc1C=C(C#N)c1ccc([N+](=O)[O-])cc1 [Compound 35] | 5 to 50 | 0.5 to 5 | 0.02 to 0.2 |  |  |  | 
CC(C)CCc1ccccc1C=C(C#N)c1ccc([N+](=O)[O-])cc1 [Compound 36] | 5 to 50 | 0.5 to 5 | 0.02 to 0.2 |  |  |  | 
N#CC(=Cc1ccccc1Cc1c(Cl)cccc1Cl)c1ccc([N+](=O)[O-])cc1 [Compound 37] | 5 to 50 | 0.5 to 5 | 0.02 to 0.2 |  |  |  | 
N#CC(=Cc1ccccc1CCc1ccccc1)c1ccc([N+](=O)[O-])cc1 [Compound 38] | 5 to 50 | 0.5 to 5 | 0.02 to 0.2 |  |  |  | 
N#CC(=Cc1ccccc1CCC1CCCCC1)c1ccc([N+](=O)[O-])cc1 [Compound 39] | < 5 | < 0.5 | ≤ 0.02 |  |  |  | 
N#CC(=Cc1ccccc1CCCC1CCCCC1)c1ccc([N+](=O)[O-])cc1 [Compound 40] | < 5 | < 0.5 | ≤ 0.02 |  |  |  | 
N#CC(=Cc1ccccc1CC1CCCCC1)c1ccc([N+](=O)[O-])cc1 [Compound 41] | < 5 | < 0.5 | ≤ 0.02 |  |  |  | 
N#CC(=Cc1ccccc1CCCc1ccccc1)c1ccc([N+](=O)[O-])cc1 [Compound 42] | 50 to 500 | 5 to 50 | 0.2 to 2 |  |  |  | 
CC(C)(C)CCc1ccccc1C=C(C#N)c1ccc([N+](=O)[O-])cc1 [Compound 43] | 5 to 50 | 0.5 to 5 | 0.02 to 0.2 |  |  |  | 
CC(C)(C)c1ccc(CCc2ccccc2C=C(C#N)c2ccc([N+](=O)[O-])cc2)cc1 [Compound 45] | 5 to 50 | 0.5 to 5 | 0.02 to 0.2 |  |  |  | 
N#CC(=Cc1ccccc1CCc1ccccc1Cl)c1ccc([N+](=O)[O-])cc1 [Compound 46] | 5 to 50 | 0.5 to 5 | 0.02 to 0.2 |  |  |  | 
N#CC(=Cc1ccccc1CCc1cccc(Cl)c1)c1ccc([N+](=O)[O-])cc1 [Compound 47] | 5 to 50 | 0.5 to 5 | 0.02 to 0.2 |  |  |  | 
